pIC50: −log10 of the molar value. Like-named read-outs stand apart in the source and are kept apart here.
Tests used:
[1] = tested on: Male HWT mice; format: in vivo; settings: for Kidneys mean weight ± standard error: 2 weeks
Protocol: (§1) Male HWT mice, 12 weeks old, were treated daily for 2 weeks, with 5 animals per treatment group. The test compounds were the compound of Examples 1 and 4 (as representative of compounds of the invention having the pregenolone-like and progesterone-like skeletons respectively). Ketoconazole was also tested at three different doses. The test compounds were made up in 5% benzyl alcohol, 95% safflower oil, and were given i.p.. In addition to an untreated control group of animals, there was also a solvent control group which received the same volume of liquid as the test group (5 ml/kg) but no test compound. All animals were sacrificed 24 hours after the last injection. Blood was collected by cardiac puncture into heparinized tubes, and the plasma used for RIA (radio immunoassay) of testosterone and luteinising hormone. The following organs were removed and weighed: adrenals, prostate, seminal vesicles, testes, kidneys. There was no significant body weight loss in any group of mice during the experiments.

[2] = tested on: testosterone and luteinising hormone; test: In vivo endocrine test in mice (plasma testosterone and LH by RIA); set-up: species or system mice (male HWT); settings: 2 weeks
Protocol: Male HWT mice, 12 weeks old, were treated daily for 2 weeks, with 5 animals per treatment group. […] The test compounds were made up in 5% benzyl alcohol, 95% safflower oil, and were given i.p.. In addition to an untreated control group of animals, there was also a solvent control group which received the same volume of liquid as the test group (5 ml/kg) but no test compound. All animals were sacrificed 24 hours after the last injection. Blood was collected by cardiac puncture into heparinized tubes, and the plasma used for RIA (radio immunoassay) of testosterone and luteinising hormone.

[3] = set-up: species or system mice (male HWT); settings: mouse, in vivo, ip
Protocol: as §1
In Ketoconazole-treated animals, adhesions were found in 2/5,2/5,4/5 of the low/middle/top dose groups. […] The livers were brown in the middle/top dose groups.

[4] = target: T1, C17-C20 lyase (Homo sapiens, UniProt P05093); test: Determination of C17-C20 lyase inhibition (human testicular microsomes, 3H-17α-hydroxyprogesterone substrate); format: biochemical; settings: for concentration required to achieve 50% inhibition of lyase, compared with the 3-pyridyl (in words): relative to 3-pyridyl compound
T1 construct: A microsomal preparation was prepared essentially as described by S. E. Barrie et al; from tissue; host or cells: human testis microsomes
T1 sequence (P05093 1-508): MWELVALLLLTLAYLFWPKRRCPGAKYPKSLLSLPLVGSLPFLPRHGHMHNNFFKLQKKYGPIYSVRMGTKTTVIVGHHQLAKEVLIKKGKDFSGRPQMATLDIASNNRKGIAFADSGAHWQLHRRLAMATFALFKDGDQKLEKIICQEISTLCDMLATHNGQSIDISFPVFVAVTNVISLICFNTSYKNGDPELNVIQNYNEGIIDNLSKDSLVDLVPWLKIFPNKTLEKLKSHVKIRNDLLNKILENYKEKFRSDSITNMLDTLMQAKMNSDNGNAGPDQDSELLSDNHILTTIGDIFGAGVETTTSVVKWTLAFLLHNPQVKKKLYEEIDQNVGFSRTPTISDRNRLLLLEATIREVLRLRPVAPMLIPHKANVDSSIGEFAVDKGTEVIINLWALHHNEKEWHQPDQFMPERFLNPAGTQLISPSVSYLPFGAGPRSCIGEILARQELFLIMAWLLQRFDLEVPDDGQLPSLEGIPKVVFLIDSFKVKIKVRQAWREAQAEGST
Protocol: (§2) Human testes were obtained from previously untreated patients undergoing orchidectomy for prostatic cancer. The testes were decapsulated and stored in liquid nitrogen until use. […] The material was then thawed, finely chopped, and homogenised in 0.25M sucrose (5 ml/g wet weight) using a Potter homogeniser. The homogenate was centrifuged at 12000 g for 30 min, and then the microsomes were pelleted by spinning the supernatant at 100,000 g for 1 hr. The pellet was washed by being resuspended in 0.25M sucrose and repelleted. The microsomal pellet was then resuspended in 50 mM sodium phosphate pH 7.4/ glycerol (3/1 v/v) and stored in aliquots in liquid nitrogen.
(§3) The basic assay mixture was EDTA (0.2 mM), dithiothreitol (DTT; 0.1 mM), NADPH (0.25 mM), glucose 6-phosphate dehydrogenase (G6PDH; 6.25 μg/ml), MgCl2 (1 mM), glucose 6-phosphate (G6P; 10 mM) and the substrate, ^3 H-progesterone (3 μM) in sodium phosphate (50 mm), pH 7.4. The compounds under test were dissolved in 50% DMSO and the final concentrations of ethanol and DMSO were 1% each. The assay reaction was carried out for 1 hour and was terminated by the addition of 2 vols. of methanol-acetonitrile (2:1) containing approx. 100 μM unlabelled progesterone, 17α-hydroxyprogesterone, androstenedione, testosterone, and 16α-hydroxyprogesterone.
The mixture was the same as described above for the 17αt-hydroxylase except that the substrate was ^3 H-17α-hydroxy- progesterone.
The HPLC separation used for the lyase involved a mini-re-column "Uptight Guard Column" packed with PELL-ODS (pellicular octadecyl silica) and a 10 cm. main column "Apex C18" column packed with 5 μ, APEX-CAT silica.
The eluant was 38:12:50 methanol:acetonitrile:water flowing at 1 ml/min. The effluent was mixed 1:1 with Ecoscint A containing 5% methanol and 5% acetonitrile and the radioactivity was measured directly by a Berthold LB506C radiochemical detector. The lyase activity was measured as the production of androstenedione and testosterone.
The enzyme activity was measured in the presence of at least 4 concentrations of each compound. […] Data for all the other compounds were fitted by non-linear regression to the median effect equation of Chou, J. Theoret.

[5] = target: T2, 17α-Hydroxylase (Homo sapiens, UniProt P05093); test: Determination of 17α-hydroxylase inhibition (human testicular microsomes, 3H-progesterone substrate); format: biochemical; settings: relative to 3-pyridyl compound
T2 construct: A microsomal preparation was prepared essentially as described by S. E. Barrie et al; from tissue; host or cells: human testis microsomes
T2 sequence (P05093 1-508): T1 sequence (P05093 1-508)
Protocol: as §2, §3
The separation of the steroids by HPLC was carried out using an "Uptight" guard column packed with 40-63 μm Nucleosil C18 and a 10 cm main column packed with 5 μm Nucleosil C18 and 60% methanol as eluant. The radioactivity in the peaks of interest was monitored on-line by mixing the HPLC effluent 1:1 with Ecoscint A (National Diagnostics) scintillation fluid, containing 25% acetonitrile, and passing the mixture through a Berthold LB506C radiochemical monitor. The hydroxylase activity was measured as the production of 17α-hydroxyprogesterone, androstenedione and testosterone.
The enzyme activity was measured in the presence of at least 4 concentrations of each compound. […]

[6] = target: T3, aromatase (Homo sapiens, UniProt P11511); format: biochemical; settings: human placental microsomes used; read-out: Michaelis constant Km
T3 construct: using human placental microsomes; from tissue; host or cells: human placental microsomes
T3 sequence (P11511 1-503): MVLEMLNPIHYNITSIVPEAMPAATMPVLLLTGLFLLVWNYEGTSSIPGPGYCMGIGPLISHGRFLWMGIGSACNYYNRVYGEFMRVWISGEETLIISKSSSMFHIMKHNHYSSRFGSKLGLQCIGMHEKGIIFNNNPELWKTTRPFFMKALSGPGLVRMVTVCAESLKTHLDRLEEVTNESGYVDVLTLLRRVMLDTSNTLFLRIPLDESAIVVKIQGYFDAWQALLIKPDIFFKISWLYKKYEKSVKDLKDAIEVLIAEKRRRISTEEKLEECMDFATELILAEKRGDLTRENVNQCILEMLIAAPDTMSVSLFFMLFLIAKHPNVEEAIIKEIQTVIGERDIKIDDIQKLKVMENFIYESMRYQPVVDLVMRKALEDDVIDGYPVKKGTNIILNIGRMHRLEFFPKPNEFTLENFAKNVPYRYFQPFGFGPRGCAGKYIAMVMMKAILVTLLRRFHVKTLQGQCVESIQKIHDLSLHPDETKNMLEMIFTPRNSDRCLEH
Protocol: Aromatase activity was determined by the method of A. B. Foster et all., J. Med. Chem. 26, 50-54 (1983), using human placental microsomes.

With `CC(=O)O[C@H]1CC[C@@]2(C)C(=CC[C@@H]3[C@@H]2CC[C@]2(C)C(c4cccnc4)=CC[C@@H]32)C1` [Example 1, 3β-acetoxy-17-(3-pyridyl)androsta-5,16-diene] the “Kidneys mean weight ± standard error” value ([1]; 0.02 mmol/kg/day i.p.) was 604 ± 24 mg, the “Kidneys mean weight ± standard error” value ([1]; 0.1 mmol/kg/day i.p.) was 500 ± 8 mg and the “Kidneys mean weight ± standard error” value ([1]; 0.5 mmol/kg/day i.p.) was 449 ± 12 mg. The “Testosterone (mean ± standard error)” value ([2]; 0.02 mmol/kg/day i.p.) was 2.7 ± 0.5 nM, the “Testosterone (mean ± standard error)” value ([2]; 0.1 mmol/kg/day i.p.) was 0.2 ± 0.1 nM and the “Testosterone (mean ± standard error)” value ([2]; 0.5 mmol/kg/day i.p.) was 0.1 ± 0.0 nM. For the same compound, the “post mortem examination: appearance of organs” value [3] was “all organs looked normal” and the “post mortem examination: deposits” value [3] was “oil/white deposits i.p”.
In the case of `C[C@]12CC[C@H](O)CC1=CC[C@@H]1[C@@H]2CC[C@]2(C)C(c3ccccn3)=CC[C@@H]12` [Example 2-Pyridyl], the “concentration required to achieve 50% inhibition of lyase, compared with the 3-pyridyl (in words)” value [4] was “far greater” and the “concentration required to achieve 50% inhibition of hydroxylase, compared with the 3-pyridyl (in words)” value [5] was “far greater”.
For `C[C@]12CC[C@H](O)CC1=CC[C@@H]1[C@@H]2CC[C@]2(C)C(Cc3ccccn3)=CC[C@@H]12` [Example 2-picolyl], the “concentration required to achieve 50% inhibition of lyase, compared with the 3-pyridyl (in words)” value [4] was “far greater” and the “concentration required to achieve 50% inhibition of hydroxylase, compared with the 3-pyridyl (in words)” value [5] was “far greater”.
For `C[C@]12CCC(=O)C=C1CC[C@@H]1[C@@H]2CC[C@]2(C)C(c3cccnc3)=CC[C@@H]12` [Example 4, 17-(3-Pyridyl)androsta-4,16-dien-3-one], the “post mortem examination: appearance of organs” value [3] was “all organs looked normal” and the “post mortem examination: deposits” value [3] was “white deposits throughout the abdomen”.
In the case of `C[C@]12CC[C@H](O)CC1=CC[C@@H]1[C@@H]2CC[C@]2(C)C(c3ccncc3)=CC[C@@H]12` [Example 4-pyridyl], the “concentration required to achieve 50% inhibition of lyase, compared with the 3-pyridyl (in words)” value [4] was “far greater” and the “concentration required to achieve 50% inhibition of hydroxylase, compared with the 3-pyridyl (in words)” value [5] was “far greater”.
Compound `C[C@]12CCC(=O)C=C1[C@@H](F)C[C@@H]1[C@@H]2CC[C@]2(C)C(c3cccnc3)=CC[C@@H]12` [Example 12, 6α-Fluoro-17-(3-pyridyl)androsta-4,16-dien-3-one] has a pIC50 ([4]; Table 2, approx. 4 nM enzyme, listed as Ex. 12) of 8.66.
For `CC(=O)N1CCN(c2ccc(OCC3COC(Cn4ccnc4)(c4ccc(Cl)cc4Cl)O3)cc2)CC1` (centres unmarked) [Ketoconazole], the “effect on adrenal weight (in words)” value ([1]; mouse, in vivo) was “increase in adrenal weight” and the “post mortem examination: gut and peritoneal wall” value [3] was “seemed to be stuck to the seminal vesicles”.
With `[3H][C@@H]1CC(=O)C=C2CC[C@@H]3[C@H](CC[C@]4(C)C(=O)CC[C@@H]34)[C@]21C` [[1β-^3 H]androstenedione] the Km [6] was 0.039 µM.
